Values of other authors, collected in patent US20100227313A1, “Methods and Compositions for Determining Altered Susceptibility of HIV-1 to Protease Inhibitor Treatment” (priority 2007, published 2010).

Test system: HIV protease
Settings: 2006, cited from earlier work

## CC(C)CN(C[C@@H](O)[C@H](Cc1ccccc1)NC(=O)O[C@H]1CCOC1)S(=O)(=O)c1ccc(N)cc1 [APV, amprenavir]
I47A, de Mendoza et al.
  effect of I47A mutation on susceptibility: reduced susceptibility
L33F, Kozal et al.
  effect of L33F mutation in protease on susceptibility: correlate with resistance
